In ChEMBL document CHEMBL3044921, “Synthesis, characterization, and SAR studies of new (1H-indol-3-yl)alkyl-3-(1H-indol-3-yl)propanamide derivatives as possible antimicrobial and antitubercular agents” (2013):
Converted amounts (≈) assume the structure as drawn.

Experiments:
Talaromyces marneffei [1] = assay: Antifungal activity against Talaromyces marneffei assessed as growth inhibition at […] to […] ug/ml after 3 to 4 days by agar well diffusion method; assay type: functional
Aspergillus fumigatus [2] = assay: Antifungal activity against Aspergillus fumigatus NCIM 902 assessed as growth inhibition at […] to […] ug/ml after 3 to 4 days by agar well diffusion method; assay type: functional
Aspergillus flavus [3] = assay: Antifungal activity against Aspergillus flavus NCIM 524 assessed as growth inhibition at […] to […] ug/ml after 3 to 4 days by agar well diffusion method; assay type: functional
Candida albicans [4] = assay: Antifungal activity against Candida albicans assessed as growth inhibition after 3 to 4 days by serial plate dilution method; assay type: functional
[5] = test system: Trichophyton mentagrophytes; assay: Antifungal activity against Trichophyton mentagrophytes assessed as growth inhibition after 3 to 4 days by serial plate dilution method; assay type: functional
Talaromyces marneffei [6] = assay: Antifungal activity against Talaromyces marneffei assessed as growth inhibition after 3 to 4 days by serial plate dilution method; assay type: functional
Aspergillus fumigatus [7] = assay: Antifungal activity against Aspergillus fumigatus NCIM 902 assessed as growth inhibition after 3 to 4 days by serial plate dilution method; assay type: functional
Aspergillus flavus [8] = assay: Antifungal activity against Aspergillus flavus NCIM 524 assessed as growth inhibition after 3 to 4 days by serial plate dilution method; assay type: functional
Streptococcus pyogenes [9] = assay type: functional
Description: Antibacterial activity against Streptococcus pyogenes assessed as growth inhibition at 1.56 to 25 ug/ml after 3 to 4 days by agar well diffusion method

Klebsiella pneumoniae [10] = assay type: functional
Description: Antibacterial activity against Klebsiella pneumoniae assessed as growth inhibition at 1.56 to 25 ug/ml after 3 to 4 days by agar well diffusion method

Pseudomonas aeruginosa [11] = assay type: functional, ATCC 27853
Description: Antibacterial activity against Pseudomonas aeruginosa ATCC 27853 assessed as growth inhibition at 1.56 to 25 ug/ml after 3 to 4 days by agar well diffusion method

Staphylococcus aureus [12] = assay type: functional, ATCC 25923
Description: Antibacterial activity against Staphylococcus aureus ATCC 25923 assessed as growth inhibition at 1.56 to 25 ug/ml after 3 to 4 days by agar well diffusion method

Streptococcus pyogenes [13] = assay: Antibacterial activity against Streptococcus pyogenes assessed as growth inhibition after 16 to 18 hr by serial plate dilution method; assay type: functional
[14] = test system: Mycolicibacterium fortuitum; assay: Antitubercular activity against Mycobacterium fortuitum ATCC 19542 assessed as growth inhibition at 0.3125 to 5 ug/mL after 7 days by resazurin reduction test; assay type: functional; conditions: ATCC 19542, 168 h
[15] = test system: Mycolicibacterium smegmatis; assay: Antitubercular activity against Mycobacterium smegmatis ATCC 19420 assessed as growth inhibition at 0.3125 to 5 ug/mL after 7 days by resazurin reduction test; assay type: functional; conditions: ATCC 19420, 168 h
[16] = test system: Mycobacterium tuberculosis; assay: Antitubercular activity against Mycobacterium tuberculosis H37Rv ATCC 27294 assessed as growth inhibition at 0.3125 to 5 ug/mL after 7 days by resazurin reduction test; assay type: functional; conditions: H37Rv ATCC 27294, 168 h
[17] = test system: Mycolicibacterium smegmatis; assay: Antitubercular activity against Mycobacterium smegmatis ATCC 19420 assessed as growth inhibition at 1 to 100 ug/mL after 7 days by resazurin reduction test; assay type: functional; conditions: ATCC 19420, 168 h
[18] = test system: Mycolicibacterium fortuitum; assay: Antitubercular activity against Mycobacterium fortuitum ATCC 19542 assessed as growth inhibition at 1 to 100 ug/mL after 7 days by resazurin reduction test; assay type: functional; conditions: ATCC 19542, 168 h
[19] = test system: Mycobacterium tuberculosis; assay: Antitubercular activity against Mycobacterium tuberculosis H37Rv ATCC 27294 assessed as growth inhibition at 1 to 100 ug/mL after 7 days by resazurin reduction test; assay type: functional; conditions: for MIC: Mycobacterium tuberculosis, H37Rv ATCC 27294, 168 h
Candida albicans [20] = assay: Antifungal activity against Candida albicans assessed as growth inhibition at […] to […] ug/ml after 3 to 4 days by agar well diffusion method; assay type: functional
[21] = test system: Trichophyton mentagrophytes; assay: Antifungal activity against Trichophyton mentagrophytes assessed as growth inhibition at […] to […] ug/ml after 3 to 4 days by agar well diffusion method; assay type: functional
Klebsiella pneumoniae [22] = assay: Antibacterial activity against Klebsiella pneumoniae assessed as growth inhibition after 16 to 18 hr by serial plate dilution method; assay type: functional
Pseudomonas aeruginosa [23] = assay: Antibacterial activity against Pseudomonas aeruginosa ATCC 27853 assessed as growth inhibition after 16 to 18 hr by serial plate dilution method; assay type: functional
Escherichia coli [24] = assay: Antibacterial activity against Escherichia coli […] assessed as growth inhibition after 16 to 18 hr by serial plate dilution method; assay type: functional
Staphylococcus aureus [25] = assay: Antibacterial activity against Staphylococcus aureus ATCC 25923 assessed as growth inhibition after 16 to 18 hr by serial plate dilution method; assay type: functional
Escherichia coli [26] = assay type: functional, ATCC 24922
Description: Antibacterial activity against Escherichia coli ATCC 24922 assessed as growth inhibition at 1.56 to 25 ug/ml after 3 to 4 days by agar well diffusion method

| Structure (SMILES) | diameter of the inhibition zone (DIZ) (Talaromyces marneffei [1]) | diameter of the inhibition zone (DIZ) (Aspergillus fumigatus [2]) | diameter of the inhibition zone (DIZ) (Aspergillus flavus [3]) | MIC (Candida albicans [4]) | MIC [5] | MIC (Talaromyces marneffei [6]) | MIC (Aspergillus fumigatus [7]) | MIC (Aspergillus flavus [8]) | diameter of the inhibition zone (DIZ) (Streptococcus pyogenes [9]) | diameter of the inhibition zone (DIZ) (Klebsiella pneumoniae [10]) | diameter of the inhibition zone (DIZ) (Pseudomonas aeruginosa [11]) | diameter of the inhibition zone (DIZ) (Staphylococcus aureus [12]) | MIC (Streptococcus pyogenes [13]) | MIC [14] | MIC [15] | MIC [16] | MIC [17] | MIC [18] | growth inhibition (GI) [19] | MIC [19] | further results |
| --- | --- | --- | --- | --- | --- | --- | --- | --- | --- | --- | --- | --- | --- | --- | --- | --- | --- | --- | --- | --- | --- |
| O=C(CCc1c[nH]c2ccc(Cl)cc12)NCc1c[nH]c2ccc(Cl)cc12 | <10 mm | 16 mm | <10 mm | 25 µg/mL (≈ 64.7 µM) | 6.25 µg/mL (≈ 16.2 µM) | 25 µg/mL (≈ 64.7 µM) | 6.25 µg/mL (≈ 16.2 µM) | 25 µg/mL (≈ 64.7 µM) | 11 mm | 16 mm | 16 mm | 16 mm | 12.5 µg/mL (≈ 32.4 µM) | 10 µg/mL (≈ 25.9 µM) | 1.25 µg/mL (≈ 3.24 µM) | 0.625 µg/mL (≈ 1.62 µM) | 1 µg/mL (≈ 2.59 µM) | 10 µg/mL (≈ 25.9 µM) | 90% | 1 µg/mL (≈ 2.59 µM) | diameter of the inhibition zone (DIZ) (Candida albicans [20]): <10 mm; diameter of the inhibition zone (DIZ) [21]: 16 mm; MIC (Klebsiella pneumoniae [22]): 6.25 µg/mL (≈ 16.2 µM); MIC (Pseudomonas aeruginosa [23]): 6.25 µg/mL (≈ 16.2 µM); MIC (Escherichia coli [24]): 6.25 µg/mL (≈ 16.2 µM); MIC (Staphylococcus aureus [25]): 6.25 µg/mL (≈ 16.2 µM); diameter of the inhibition zone (DIZ) (Escherichia coli [26]): 16 mm |
| Cn1cc(CCC(=O)NCc2c[nH]c3ccc(OC(F)(F)F)cc23)c2cc(Cl)ccc21 | 11 mm | 16 mm | 16 mm | 12.5 µg/mL (≈ 27.8 µM) | 25 µg/mL (≈ 55.6 µM) | 12.5 µg/mL (≈ 27.8 µM) | 6.25 µg/mL (≈ 13.9 µM) | 6.25 µg/mL (≈ 13.9 µM) | 16 mm | 16 mm | 16 mm | 16 mm | 6.25 µg/mL (≈ 13.9 µM) | 10 µg/mL (≈ 22.2 µM) | 1.25 µg/mL (≈ 2.78 µM) | 0.625 µg/mL (≈ 1.39 µM) | 1 µg/mL (≈ 2.22 µM) | 10 µg/mL (≈ 22.2 µM) | 95% | 1 µg/mL (≈ 2.22 µM) | diameter of the inhibition zone (DIZ) (Candida albicans [20]): 11 mm; diameter of the inhibition zone (DIZ) [21]: <10 mm; MIC (Klebsiella pneumoniae [22]): 6.25 µg/mL (≈ 13.9 µM); MIC (Pseudomonas aeruginosa [23]): 6.25 µg/mL (≈ 13.9 µM); MIC (Escherichia coli [24]): 6.25 µg/mL (≈ 13.9 µM); MIC (Staphylococcus aureus [25]): 6.25 µg/mL (≈ 13.9 µM); diameter of the inhibition zone (DIZ) (Escherichia coli [26]): 16 mm |
| Cc1[nH]c2ccc(OC(F)(F)F)cc2c1CNC(=O)CCc1c[nH]c2ccc(Cl)cc12 | 16 mm | <10 mm | 16 mm | 25 µg/mL (≈ 55.6 µM) | 25 µg/mL (≈ 55.6 µM) | 6.25 µg/mL (≈ 13.9 µM) | 25 µg/mL (≈ 55.6 µM) | 6.25 µg/mL (≈ 13.9 µM) | 16 mm | <10 mm | 16 mm | 16 mm | 6.25 µg/mL (≈ 13.9 µM) | 10 µg/mL (≈ 22.2 µM) | 10 µg/mL (≈ 22.2 µM) | 0.625 µg/mL (≈ 1.39 µM) | 10 µg/mL (≈ 22.2 µM) | 10 µg/mL (≈ 22.2 µM) | 95% | 1 µg/mL (≈ 2.22 µM) | diameter of the inhibition zone (DIZ) (Candida albicans [20]): <10 mm; diameter of the inhibition zone (DIZ) [21]: <10 mm; MIC (Klebsiella pneumoniae [22]): 25 µg/mL (≈ 55.6 µM); MIC (Pseudomonas aeruginosa [23]): 6.25 µg/mL (≈ 13.9 µM); MIC (Escherichia coli [24]): 12.5 µg/mL (≈ 27.8 µM); MIC (Staphylococcus aureus [25]): 6.25 µg/mL (≈ 13.9 µM); diameter of the inhibition zone (DIZ) (Escherichia coli [26]): 11 mm |
| Cn1cc(CCC(=O)NCc2cn(C)c3ccc(Cl)cc23)c2cc(Cl)ccc21 | 11 mm | <10 mm | <10 mm | 25 µg/mL (≈ 60.3 µM) | 25 µg/mL (≈ 60.3 µM) | 12.5 µg/mL (≈ 30.2 µM) | 25 µg/mL (≈ 60.3 µM) | 25 µg/mL (≈ 60.3 µM) | <10 mm | 11 mm | 11 mm | <10 mm | 25 µg/mL (≈ 60.3 µM) | 10 µg/mL (≈ 24.1 µM) | 10 µg/mL (≈ 24.1 µM) | 10 µg/mL (≈ 24.1 µM) | > 100 µg/mL | 10 µg/mL (≈ 24.1 µM) | <90% | > 100 µg/mL | diameter of the inhibition zone (DIZ) (Candida albicans [20]): <10 mm; diameter of the inhibition zone (DIZ) [21]: <10 mm; MIC (Klebsiella pneumoniae [22]): 12.5 µg/mL (≈ 30.2 µM); MIC (Pseudomonas aeruginosa [23]): 12.5 µg/mL (≈ 30.2 µM); MIC (Escherichia coli [24]): 12.5 µg/mL (≈ 30.2 µM); MIC (Staphylococcus aureus [25]): 25 µg/mL (≈ 60.3 µM); diameter of the inhibition zone (DIZ) (Escherichia coli [26]): 11 mm |
